This test deals with TARP γ8 dependent AMPA receptor (GluA1o-g8 fusion channel) (Homo sapiens (Human), UniProt P42261+Q8WXS5). Kind of test: Calcium flux assay (FLIPR), HEK293 cells expressing GRIA1o-CACNG8 fusion. Type of test: cell-based. The note with it: inhibition of calcium flux after 15 μM glutamate, read-out: GluR1-γ8 pIC50 (converted). Put shortly:
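Stable HEK293 clone expressing GluA1o-γ8 fusion (1:1 stoichiometry), loaded with Calcium-5/6 dye plus test compound; glutamate-evoked fluorescence normalized to control wells. Concentration-response fitted to four-parameter logistic, midpoint taken as inhibitory potency.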
(In general: Calcium assays in cells follow changes in intracellular calcium, usually with a dye or a luminescent sensor.)
Sequence of TARP γ8 dependent AMPA receptor (GluA1o-g8 fusion channel) (P42261 other isoform, or with tags, fused parts or gaps): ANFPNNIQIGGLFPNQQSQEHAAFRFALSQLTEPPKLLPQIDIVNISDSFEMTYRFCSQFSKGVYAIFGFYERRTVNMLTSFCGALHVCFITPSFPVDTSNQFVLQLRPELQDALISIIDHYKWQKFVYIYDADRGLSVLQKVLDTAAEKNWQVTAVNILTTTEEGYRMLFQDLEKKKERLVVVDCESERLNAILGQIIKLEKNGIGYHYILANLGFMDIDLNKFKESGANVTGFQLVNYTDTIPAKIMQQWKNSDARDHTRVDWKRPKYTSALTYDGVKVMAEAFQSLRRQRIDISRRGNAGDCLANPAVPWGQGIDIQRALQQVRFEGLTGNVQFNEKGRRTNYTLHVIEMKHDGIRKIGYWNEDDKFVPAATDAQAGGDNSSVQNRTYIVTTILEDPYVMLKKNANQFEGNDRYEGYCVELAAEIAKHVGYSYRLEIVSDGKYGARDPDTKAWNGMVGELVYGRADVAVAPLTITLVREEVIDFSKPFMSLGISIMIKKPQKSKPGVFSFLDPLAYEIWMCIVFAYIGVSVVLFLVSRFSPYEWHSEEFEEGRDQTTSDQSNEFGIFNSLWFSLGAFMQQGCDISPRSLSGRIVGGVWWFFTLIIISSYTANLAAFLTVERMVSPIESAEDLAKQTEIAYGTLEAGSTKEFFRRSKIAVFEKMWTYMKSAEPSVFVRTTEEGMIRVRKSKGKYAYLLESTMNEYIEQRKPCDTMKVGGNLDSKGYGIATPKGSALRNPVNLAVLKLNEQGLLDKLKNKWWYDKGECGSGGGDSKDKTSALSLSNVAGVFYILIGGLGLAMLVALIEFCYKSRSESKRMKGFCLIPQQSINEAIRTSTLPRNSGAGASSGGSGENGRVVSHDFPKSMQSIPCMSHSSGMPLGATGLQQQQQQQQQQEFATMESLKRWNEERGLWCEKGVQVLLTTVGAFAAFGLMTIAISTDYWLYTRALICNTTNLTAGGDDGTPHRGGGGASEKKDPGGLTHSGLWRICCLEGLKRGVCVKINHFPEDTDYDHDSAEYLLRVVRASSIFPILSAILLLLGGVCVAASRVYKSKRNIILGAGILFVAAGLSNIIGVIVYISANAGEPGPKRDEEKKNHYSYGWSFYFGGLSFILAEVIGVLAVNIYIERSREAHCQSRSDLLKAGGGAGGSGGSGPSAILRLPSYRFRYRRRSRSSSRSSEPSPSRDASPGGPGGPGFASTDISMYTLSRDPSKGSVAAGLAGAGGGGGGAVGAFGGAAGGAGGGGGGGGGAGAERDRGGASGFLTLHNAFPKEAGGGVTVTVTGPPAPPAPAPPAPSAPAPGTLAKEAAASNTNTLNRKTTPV
In the case of `COc1cnccc1-c1cccc(Cl)c1-c1ccc2[nH]c(=O)[nH]c2c1` [Example 171, 5-[2-Chloro-6-(3-methoxy-4-pyridyl)phenyl]-1,3-dihydrobenzimidazol-2-one], the IC50 was 1000 nM. Regarding `Cc1c(-c2ccc3[nH]c(=O)sc3c2)cccc1-c1ncno1` [Example 200, 6-[2-Methyl-3-(1,2,4-oxadiazol-5-yl)phenyl]-3H-1,3-benzothiazol-2-one], the IC50 is 2510 nM. `Cn1cc(-c2cccc(-c3ccc4[nH]c(=O)[nH]c4c3)c2Cl)cn1` [Example 185, 5-[2-Chloro-3-(1-methylpyrazol-4-yl)phenyl]-1,3-dihydrobenzimidazol-2-one]: the IC50 was 50.1 nM.

Take `Cc1c(CN2CCOCC2C)cccc1-c1ccc2[nH]c(=O)[nH]c2c1` (stereo in doubt) [Example 152, (3R)-5-[2-Methyl-3-[[3-methylmorpholin-4-yl]methyl]phenyl]-1,3-dihydrobenzimidazol-2-one]: the IC50 was 1000 nM. Consider `O=c1[nH]c2ccc(-c3cccc(-c4nnco4)c3Br)cc2[nH]1` [Example 193, 5-[2-Bromo-3-(1,3,4-oxadiazol-2-yl)phenyl]-1,3-dihydrobenzimidazol-2-one], for which the IC50 is 251 nM. The same measure for `COc1cncc(-c2cccc(Cl)c2-c2ccc3[nH]c(=O)[nH]c3c2)c1` [Example 168, 5-[2-Chloro-6-(5-methoxy-3-pyridyl)phenyl]-1,3-dihydrobenzimidazol-2-one]: 398 nM; for `N#CCc1cccc(Cl)c1-c1ccc2[nH]c(=O)sc2c1` [Example 133, 2-[3-Chloro-2-(2-oxo-3H-1,3-benzothiazol-6-yl)phenyl]acetonitrile]: 3.16 nM; for `Cc1c(C#N)cccc1-c1ccc2[nH]c(=O)[nH]c2c1` [Example 67, 2-Methyl-3-(2-oxo-1,3-dihydrobenzimidazol-5-yl)benzonitrile]: 251 nM. For the molecule `CC(C)(C)OC(=O)N1CCC=C(c2cccc(-c3ccc4[nH]c(=O)[nH]c4c3)c2Cl)C1` [Example 186, tert-Butyl 5-[2-chloro-3-(2-oxo-1,3-dihydrobenzimidazol-5-yl)phenyl]-3,6-dihydro-2H-pyridine-1-carboxylate], the IC50 is 6.31 nM. As for `O=c1[nH]c2ccc(-c3c(Cl)cccc3OCC3CC3(F)F)cc2[nH]1` (racemic) [Example 93, (±)-5-[2-Chloro-6-[(2,2-difluorocyclopropyl)methoxy]phenyl]-1,3-dihydrobenzimidazol-2-one], the figure is 20 nM; as for `O=c1[nH]c2ccc(-c3c(Cl)cccc3OCC3CC3)cc2[nH]1` [Example 92, 5-[2-Chloro-6-(cyclopropylmethoxy)phenyl]-1,3-dihydrobenzimidazol-2-one], 10 nM. Regarding `O=c1[nH]c2ccc(-c3c(Cl)cccc3-c3cncc(F)c3)cc2[nH]1` [Example 166, 5-[2-Chloro-6-(5-fluoro-3-pyridyl)phenyl]-1,3-dihydrobenzimidazol-2-one], the IC50 is 63.1 nM. For the molecule `Cc1cccc(-c2ccc3[nH]c(=O)[nH]c3c2)c1Cl` [Example 64, 5-(2-Chloro-3-methyl-phenyl)-1,3-dihydrobenzimidazol-2-one], the IC50 was 100 nM. For `Cc1cccc(C#N)c1-c1ccc2[nH]c(=O)[nH]c2c1` [Example 38, 3-Methyl-2-(2-oxo-1,3-dihydrobenzimidazol-5-yl)benzonitrile], the IC50 is 501 nM. Take `N#Cc1cccc(-c2ccc3[nH]c(=O)[nH]c3c2)c1Cl` [Example 68, 2-Chloro-3-(2-oxo-1,3-dihydrobenzimidazol-5-yl)benzonitrile]: the IC50 was 316 nM. For `Cc1c(C(=O)NC2CC2)cccc1-c1ccc2[nH]c(=O)[nH]c2c1` [Example 80, N-Cyclopropyl-2-methyl-3-(2-oxo-1,3-dihydrobenzimidazol-5-yl)benzamide], the IC50 is 3980 nM. For `C[C@H](Oc1cccc(Cl)c1-c1ccc2[nH]c(=O)[nH]c2c1)C(F)(F)F` (single isomer, unassigned) [Example 120, (S*)-5-[2-Chloro-6-(2,2,2-trifluoro-1-methyl-ethoxy)phenyl]-1,3-dihydrobenzimidazol-2-one], the IC50 is 79.4 nM. As for `CC1(C)CN(Cc2cccc(-c3ccc4[nH]c(=O)[nH]c4c3)c2Cl)CCO1` [Example 143, 5-[2-Chloro-3-[(2,2-dimethylmorpholin-4-yl)methyl]phenyl]-1,3-dihydrobenzimidazol-2-one], the IC50 is 100 nM. With `O=C(c1ccc(Cl)c(-c2ccc3[nH]c(=O)[nH]c3c2)c1)N1CCCCC1` [Example 85, 5-[2-Chloro-5-(piperidine-1-carbonyl)phenyl]-1,3-dihydrobenzimidazol-2-one], the IC50 is 5010 nM.

For the molecule `Cc1c(-c2ccc3[nH]c(=O)sc3c2)cccc1-c1noc(C2CC2)n1` [Example 74, 6-[3-(5-Cyclopropyl-1,2,4-oxadiazol-3-yl)-2-methyl-phenyl]-3H-1,3-benzothiazol-2-one], the IC50 was 3980 nM.

For the molecule `N#Cc1c(Br)cccc1-c1ccc2[nH]c(=O)[nH]c2c1` [Example 63, 2-Bromo-6-(2-oxo-1,3-dihydrobenzimidazol-5-yl)benzonitrile], the IC50 is 631 nM. Consider `O=c1[nH]c2ccc(-c3c(Cl)cccc3-c3cn[nH]c3)cc2[nH]1` [Example 176, 5-[2-Chloro-6-(1H-pyrazol-4-yl)phenyl]-1,3-dihydrobenzimidazol-2-one], for which the IC50 was 2000 nM. For the molecule `COC(=O)c1cccc(-c2ccc3[nH]c(=O)[nH]c3c2)c1Cl` [Example 43, Methyl 2-chloro-3-(2-oxo-1,3-dihydrobenzimidazol-5-yl)benzoate], the IC50 is 31.6 nM.

As for `O=c1[nH]c2ccc(-c3c(Cl)cc(Cl)cc3Cl)cc2[nH]1` [Example 51, 5-(2,4,6-Trichlorophenyl)-1,3-dihydrobenzimidazol-2-one], the IC50 is 501 nM.

As for `O=c1[nH]c2ccc(-c3ccccc3C(F)(F)F)cc2[nH]1` [Example 4, 5-[2-(Trifluoromethyl)phenyl]-1,3-dihydrobenzimidazol-2-one], the IC50 is 501 nM. On to `O=c1[nH]c2ccc(-c3c(F)cccc3Cl)cc2[nH]1` [Example 53, 5-(2-Chloro-6-fluoro-phenyl)-1,3-dihydrobenzimidazol-2-one], for which the IC50 is 251 nM. As for `O=c1[nH]c2ccc(-c3cccc(N4CCCCC4)c3Cl)cc2[nH]1` [Example 188, 5-[2-Chloro-3-(1-piperidyl)phenyl]-1,3-dihydrobenzimidazol-2-one], the figure is 12.6 nM; as for `Cc1c(-c2ccc3[nH]c(=O)[nH]c3c2)cccc1-c1nnco1` [Example 194, 5-[2-Methyl-3-(1,3,4-oxadiazol-2-yl)phenyl]-1,3-dihydrobenzimidazol-2-one], 501 nM; as for `Cc1c(CN2CCOCC2)cccc1-c1ccc2[nH]c(=O)[nH]c2c1` [Example 148, 5-[2-Methyl-3-(morpholinomethyl)phenyl]-1,3-dihydrobenzimidazol-2-one], 2000 nM.

Regarding `Cc1ccccc1-c1ccc2[nH]c(=O)[nH]c2c1` [Example 3, 5-(o-Tolyl)-1,3-dihydrobenzimidazol-2-one], the IC50 is 1260 nM.

`Cc1c(C(=O)N(C)C)cccc1-c1ccc2[nH]c(=O)[nH]c2c1` [Example 81, N,N,2-Trimethyl-3-(2-oxo-1,3-dihydrobenzimidazol-5-yl)benzamide]: the IC50 was 3160 nM.

Source of the values: patent US10611730B2, “Benzimidazolone and benzothiazolone compounds and their use as AMPA receptor modulators” (Janssen Pharmaceutica NV, priority 2015, dated 2020).
